Reference: patent US20250171495A1, “MUTLI-TARGETED SERINE PROTEASE INHIBITORS FOR TREATMENT OF CANCER AND VIRAL INFECTION” (Washington University, priority 2023, published 2025)
pIC50: −log10 of the molar value. Read-outs that look alike come from different tables or passages of the source.

What was measured:
matriptase = target: T1, matriptase (Homo sapiens, UniProt Q9Y5Y6); assay: Fluorogenic kinetic enzyme inhibitor assay, matriptase; type: biochemical
T1 construct: purchased R&D Systems 3946-SEB-010
T1 sequence (Q9Y5Y6 615-855 limits assumed): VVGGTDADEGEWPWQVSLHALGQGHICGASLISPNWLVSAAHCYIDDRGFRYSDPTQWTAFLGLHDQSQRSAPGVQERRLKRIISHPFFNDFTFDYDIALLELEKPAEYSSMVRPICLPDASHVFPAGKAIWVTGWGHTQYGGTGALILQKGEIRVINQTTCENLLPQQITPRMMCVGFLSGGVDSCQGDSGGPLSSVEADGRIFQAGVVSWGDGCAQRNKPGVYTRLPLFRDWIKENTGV

Factor Xa = target: T2, Factor Xa (Homo sapiens, UniProt P00742); assay: Fluorogenic assay, Factor Xa; type: biochemical; settings: read-out: Factor Xa IC50
T2 construct: TMPRSS2; Matriptase; Hepsin; HGFA; Thrombin; Factor Xa
T2 sequence (P00742 235-488 limits assumed): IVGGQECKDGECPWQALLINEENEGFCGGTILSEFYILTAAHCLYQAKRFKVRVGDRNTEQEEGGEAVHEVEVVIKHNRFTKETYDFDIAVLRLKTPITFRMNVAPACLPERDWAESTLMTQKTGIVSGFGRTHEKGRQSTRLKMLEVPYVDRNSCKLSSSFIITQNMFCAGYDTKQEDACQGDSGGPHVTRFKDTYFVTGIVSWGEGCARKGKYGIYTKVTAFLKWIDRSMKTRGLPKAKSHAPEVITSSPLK
T2 sequence (P00742 41-179 partner limits assumed): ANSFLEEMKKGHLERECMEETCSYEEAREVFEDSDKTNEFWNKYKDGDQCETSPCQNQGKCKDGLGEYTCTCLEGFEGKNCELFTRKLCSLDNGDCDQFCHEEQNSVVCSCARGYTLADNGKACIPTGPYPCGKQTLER

Thrombin = Thrombin (Homo sapiens, UniProt P00734); assay: Fluorogenic assay, thrombin; type: biochemical
SARS-CoV-2 = type: cell-based; parameters: unit not given here
TMPRSS2 = TMPRSS2 (Homo sapiens, UniProt O15393); assay: Fluorogenic kinetic enzyme inhibitor assay, TMPRSS2; type: biochemical; parameters: purchased Cusabio Technology CSB-YP023924HU
TMPRSS2, sequence (O15393 106-492 limits assumed): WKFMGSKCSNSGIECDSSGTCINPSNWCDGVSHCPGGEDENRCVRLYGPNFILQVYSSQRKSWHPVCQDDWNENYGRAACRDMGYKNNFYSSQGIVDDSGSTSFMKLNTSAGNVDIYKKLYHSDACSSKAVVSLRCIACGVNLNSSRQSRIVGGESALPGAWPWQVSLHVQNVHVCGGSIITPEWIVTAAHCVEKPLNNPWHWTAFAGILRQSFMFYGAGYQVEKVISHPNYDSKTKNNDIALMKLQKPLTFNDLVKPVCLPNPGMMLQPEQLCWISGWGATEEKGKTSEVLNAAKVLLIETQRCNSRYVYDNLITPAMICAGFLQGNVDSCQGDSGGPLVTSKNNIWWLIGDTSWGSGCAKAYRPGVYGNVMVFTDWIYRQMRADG

hepsin = target: T3, hepsin (Homo sapiens, UniProt P05981); assay: Fluorogenic kinetic enzyme inhibitor assay, hepsin; type: biochemical
T3 construct: purchased R&D Systems 4776-SE-010
T3 sequence (P05981 163-417 limits assumed): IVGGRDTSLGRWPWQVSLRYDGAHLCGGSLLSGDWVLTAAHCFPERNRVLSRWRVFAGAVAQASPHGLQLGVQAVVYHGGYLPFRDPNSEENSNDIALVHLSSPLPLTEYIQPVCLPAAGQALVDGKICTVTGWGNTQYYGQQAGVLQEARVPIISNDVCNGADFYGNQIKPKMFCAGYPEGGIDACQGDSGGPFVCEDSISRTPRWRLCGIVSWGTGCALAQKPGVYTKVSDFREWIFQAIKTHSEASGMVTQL
T3 sequence (P05981 1-162 partner limits assumed): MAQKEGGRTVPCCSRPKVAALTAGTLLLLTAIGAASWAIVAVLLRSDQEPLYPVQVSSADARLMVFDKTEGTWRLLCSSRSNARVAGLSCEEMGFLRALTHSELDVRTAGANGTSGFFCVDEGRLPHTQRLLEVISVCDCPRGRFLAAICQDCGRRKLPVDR

HGFA = target: T4, HGFA (Homo sapiens, UniProt Q04756); assay: Fluorogenic kinetic enzyme inhibitor assay, HGFA; type: biochemical
T4 construct: purchased R&D Systems 1514-SE-010
T4 sequence (Q04756 408-655 limits assumed): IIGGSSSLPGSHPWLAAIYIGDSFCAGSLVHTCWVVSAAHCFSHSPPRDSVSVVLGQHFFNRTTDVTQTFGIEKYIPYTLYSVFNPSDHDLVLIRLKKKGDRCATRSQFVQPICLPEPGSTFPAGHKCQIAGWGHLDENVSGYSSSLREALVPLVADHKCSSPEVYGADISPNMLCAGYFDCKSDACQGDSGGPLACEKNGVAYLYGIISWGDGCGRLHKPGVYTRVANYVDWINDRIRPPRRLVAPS
T4 sequence (Q04756 373-407 partner limits assumed): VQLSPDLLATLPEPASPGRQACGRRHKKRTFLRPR

Structure (SMILES)	ring closure, yield of all isomers (from C=CCOc1ccc(C[C@H](NC(C)=O)C(=O)N[C@@H](CC(C)C)C(=O)N[C@@H](CC=C)C(=O)OC)cc1, rcm bond, Grubbs 2nd generation catalyst, DCM, 1.28 mM, 40.0 °C, 18.0 h)	pIC50 (matriptase; read-out: Matriptase IC50)	pIC50 (Factor Xa)	pIC50 (Thrombin)	SARS-CoV-2 Calu-3- titer (0.01 uM) (SARS-CoV-2)	SARS-CoV-2 Calu-3 titer (0.1 uM) (SARS-CoV-2)	SARS-CoV-2 Calu-3 titer (1 uM) (SARS-CoV-2)	pIC50 (TMPRSS2)	pIC50 (hepsin; read-out: Hepsin IC50)	pIC50 (HGFA; read-out: HGFA IC50)	pIC50 (TMPRSS2; read-out: TMPRSS2 IC50)	ring closure, yield of all isomers (from CC(=O)N[C@@H](CC(=O)O)C(=O)N[C@@H](CC(C)C)C(=O)N[C@@H](CCCCN)C(=O)O, amide bond, EDCI/HOBt/iPr2NEt, DMF, 21.25 mM, 25.0 °C, 16.0 h, 9 steps)	pIC50 (matriptase)	pIC50 (hepsin)	pIC50 (HGFA)
COC(=O)[C@@H]1CC=CCOc2ccc(cc2)C[C@H](NC(C)=O)C(=O)N[C@@H](CC(C)C)C(=O)N1 [Ac-cyclo-(L) Tyr-Leu-allyl-OMe]	65%														
CC(=O)N[C@H]1CC(=O)NCCCC[C@@H](C(=O)N[C@@H](CCCNC(=N)N)C(=O)c2nc3ccccc3s2)NC(=O)[C@H](CC(C)C)NC1=O [VD2173, Ac-Cyclo(DLK)—R-ketobenzothiazole]		8.59	5.69	5.09	11	17	57	8.67	7.72	5.07					
N=C(N)NCCC[C@H](NC(=O)[C@H](Cc1ccccc1)NC(=O)[C@H](CCC(N)=O)NC(=O)c1ccccc1)C(=O)c1nc2ccccc2s1 [CA1043]		9.06	5.80	< 4.70					9.96	8.07	10.09				
CC(=O)N[C@H]1CC(=O)NCCCC[C@@H](C(=O)O)NC(=O)[C@H](CC(C)C)NC1=O												59.1%			
N=C(N)NCCC[C@@H](NC(=O)[C@H](Cc1ccccc1)NC(=O)[C@H](CCC(N)=O)NCc1ccccc1)C(=O)c1nc2ccccc2s1 [CA1022-1, N-[(S)-1-[N-(R)-1-[(1,3-benzothiazol-2-yl)carbonyl]-4-guanidinobutylcarbamoyl]-2-phenylethyl](S)-2-benzylaminoglutaramide]		8.06	6.35	< 4.70					9.08	5.89	8.63				
CN(C)[C@@H](CCC(N)=O)C(=O)N[C@@H](Cc1ccccc1)C(=O)N[C@H](CCCNC(=N)N)C(=O)c1nc2ccccc2s1 [CA1041-1, N-[(S)-1-[N-(R)-1-[(1,3-benzothiazol-2-yl)carbonyl]-4-guanidinobutylcarbamoyl]-2-phenylethyl](S)-2-(dimethylamino)glutaramide]		6.84	5.15	< 4.70					6.91	< 4.70	7.73				
N=C(N)NCCC[C@@H](NC(=O)[C@H](Cc1ccccc1)NC(=O)[C@H](CCC(N)=O)NCCc1ccccc1)C(=O)c1nc2ccccc2s1 [CA1033-1, N-[(S)-1-[N-(R)-1-[(1,3-benzothiazol-2-yl)carbonyl]-4-guanidinobutylcarbamoyl]-2-phenylethyl](S)-2-(phenethylamino)glutaramide]		7.11	4.77	< 4.70					8.03	5.54	7.78				
CC(=O)N[C@H]1C/C=C\COc2ccc(cc2)C[C@@H](C(=O)N[C@@H](CCCNC(=N)N)C(=O)c2nc3ccccc3s2)NC(=O)[C@H](CC(C)C)NC1=O [VD4051, N-[(S)-1-[(1,3-benzothiazol-2-yl)carbonyl]-4-guanidinobutyl]-(4Z,7S,10S,13S)-7-acetylamino-10-isobutyl-8,11-dioxo-2-oxa-9,12-diazabicyclo[13.2.2]nonadeca-1(17),4,15,18-tetraene-13-carboxamide]			5.06	< 4.70							7.85		7.85	7.70	< 4.70
N=C(N)NCCC[C@@H](NC(=O)[C@H](Cc1ccccc1)NC(=O)[C@H](CCC(N)=O)N1CCCCC1)C(=O)c1nc2ccccc2s1 [CA1046-1, N-[(S)-1-[N-(R)-1-[(1,3-benzothiazol-2-yl)carbonyl]-4-guanidinobutylcarbamoyl]-2-phenylethyl](S)-2-piperidinoglutaramide]		5.75	4.91	< 4.70					6.98	< 4.70	7.16				
CC(=O)N[C@@H](Cc1c[nH]c2ccccc12)C(=O)N[C@@H](Cc1ccccc1)C(=O)N[C@@H](CCCNC(=N)N)C(=O)c1nc2ccccc2s1 [PK-1-102A1, N-[(S)-1-[(1,3-benzothiazol-2-yl)carbonyl]-4-guanidinobutyl](S)-2-[(S)-2-acetylamino-3-(3-indolyl)propionylamino]-3-phenylpropionamide]		8.24	7.67	< 4.70					8.12	6.48	9.41				
